According to patent US11866450B2, “Modulators of Cystic Fibrosis Transmembrane Conductance regulator, pharmaceutical compositions, methods of treatment, and process for making the modulators” (priority 2018, dated 2024):
Read-outs that look alike come from different tables or passages of the source.

How the values were obtained:
[1] = snar bond
[2] = biological target: CFTR-mediated chloride transport (Homo sapiens, UniProt P13569); type: cell-based; details: enteroid cells incubated with test compound 18-24 hours, acute 10 μM forskolin and 300 nM Compound III; for Max. Activity: % of chloride transport with 3 μM Compound A, 3 μM Compound II and 300 nM acute Compound III triple combination control
How it was run: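 Membrane-potential fluorescence AUC over 15 min quantified CFTR chloride transport after acute forskolin (10 μM), IBMX (100 μM) and Compound III (300 nM) in chloride-free buffer. Human enteroid cells were pretreated with compound for 18–24 h; % Activity is relative to 3 μM Compound A + 3 μM Compound II + 300 nM Compound III.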

CFTR-mediated chloride transport, sequence (P13569 whole entry, looked up): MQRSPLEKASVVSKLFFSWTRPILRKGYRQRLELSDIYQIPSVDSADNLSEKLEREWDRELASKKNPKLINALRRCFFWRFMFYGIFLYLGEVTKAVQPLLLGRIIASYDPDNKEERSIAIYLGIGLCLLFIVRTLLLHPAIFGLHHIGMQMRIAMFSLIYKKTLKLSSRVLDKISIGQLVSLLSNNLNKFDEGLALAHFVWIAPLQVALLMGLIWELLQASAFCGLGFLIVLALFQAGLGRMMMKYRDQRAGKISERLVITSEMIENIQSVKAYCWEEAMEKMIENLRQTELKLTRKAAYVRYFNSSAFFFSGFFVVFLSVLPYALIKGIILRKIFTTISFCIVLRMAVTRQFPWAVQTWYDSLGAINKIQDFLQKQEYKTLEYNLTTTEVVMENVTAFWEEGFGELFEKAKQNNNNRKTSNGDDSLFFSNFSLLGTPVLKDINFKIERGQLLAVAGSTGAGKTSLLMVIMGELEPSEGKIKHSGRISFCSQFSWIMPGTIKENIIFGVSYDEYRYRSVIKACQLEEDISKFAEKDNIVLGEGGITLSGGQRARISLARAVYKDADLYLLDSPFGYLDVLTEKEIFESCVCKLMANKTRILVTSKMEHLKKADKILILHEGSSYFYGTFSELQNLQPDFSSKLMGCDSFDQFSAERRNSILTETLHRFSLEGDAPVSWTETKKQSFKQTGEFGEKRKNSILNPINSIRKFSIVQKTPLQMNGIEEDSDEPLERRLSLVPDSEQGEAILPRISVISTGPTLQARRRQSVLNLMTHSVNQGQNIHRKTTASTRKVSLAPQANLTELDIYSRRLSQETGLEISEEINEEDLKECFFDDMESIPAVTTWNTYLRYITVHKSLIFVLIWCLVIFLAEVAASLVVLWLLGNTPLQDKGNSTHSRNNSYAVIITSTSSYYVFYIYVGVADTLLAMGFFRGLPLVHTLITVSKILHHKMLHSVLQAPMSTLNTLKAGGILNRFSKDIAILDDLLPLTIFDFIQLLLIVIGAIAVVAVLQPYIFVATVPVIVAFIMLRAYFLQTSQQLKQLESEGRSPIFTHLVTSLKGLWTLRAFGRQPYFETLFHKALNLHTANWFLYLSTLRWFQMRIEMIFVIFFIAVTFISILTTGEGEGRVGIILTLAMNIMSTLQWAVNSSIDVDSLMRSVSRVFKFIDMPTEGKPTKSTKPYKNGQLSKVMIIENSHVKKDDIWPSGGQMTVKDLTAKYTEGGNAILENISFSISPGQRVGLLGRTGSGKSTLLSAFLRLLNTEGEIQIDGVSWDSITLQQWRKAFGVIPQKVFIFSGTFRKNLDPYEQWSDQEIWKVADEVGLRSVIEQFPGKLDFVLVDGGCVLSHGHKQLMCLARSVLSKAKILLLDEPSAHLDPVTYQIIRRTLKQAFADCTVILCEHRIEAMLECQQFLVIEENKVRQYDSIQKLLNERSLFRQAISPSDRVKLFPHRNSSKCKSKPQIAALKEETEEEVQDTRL

Structure (SMILES) | EC50 [2] | Max. Activity [2] | other results
CC1(C)CCC2CCCNc3cccc(n3)S(=O)(=O)NC(=O)c3ccc(-n4ccc(OCCC5(C(F)(F)F)CC5)n4)nc3N21 (stereo not drawn) [Compound 16, 12,12-dimethyl-8-(3-{2-[1-(trifluoromethyl)cyclopropyl]ethoxy}-1H-pyrazol-1-yl)-2λ^6-thia-3,9,11,19,24-pentaazatetracyclo[18.3.1.05,10.011,15]tetracosa-1(23),5,7,9,20(24),21-hexaene-2,2,4-trione] | < 1000 nM | ++ (++ is 30-60%) | ring closure, isolated yield ([1]; from CC1(C)CCC(CCCNc2cccc(S(=O)(=O)NC(=O)c3ccc(-n4ccc(OCCC5(C(F)(F)F)CC5)n4)nc3Cl)n2)N1, 14-membered ring, K2CO3/CsF, DMSO, 84.1 mM, 150.0 °C): 58%
CC1(C)CC2CNc3cccc(n3)S(=O)(=O)NC(=O)c3ccc(-n4ccc(OCCC5(C(F)(F)F)CC5)n4)nc3N1C2 (stereo not drawn) [Compound 17, 6,6-dimethyl-10-(3-{2-[1-(trifluoromethyl)cyclopropyl]ethoxy}-1H-pyrazol-1-yl)-16λ^6-thia-2,7,9,15,21-pentaazatetracyclo[15.3.1.14,7.08,13]docosa-1(20),8,10,12,17(21),18-hexaene-14,16,16-trione] | 1000 to 3000 nM | ++ (++ is 30-60%) | ring closure, isolated yield ([1]; from CC(C)(C)OC(=O)N1CC(CNc2cccc(S(=O)(=O)NC(=O)c3ccc(-n4ccc(OCCC5(C(F)(F)F)CC5)n4)nc3Cl)n2)CC1(C)C, 13-membered ring, K2CO3/CsF/3A MS, DMSO, 45.0 mM, 155.0 °C, 2 steps): 57%
CC1(C)CC2CCNc3cccc(n3)S(=O)(=O)NC(=O)c3ccc(-n4ccc(OCCC5(C(F)(F)F)CC5)n4)nc3N1C2 (stereo not drawn) [Compound 20, 7,7-dimethyl-11-(3-{2-[1-(trifluoromethyl)cyclopropyl]ethoxy}-1H-pyrazol-1-yl)-17λ^6-thia-2,8,10,16,22-pentaazatetracyclo[16.3.1.15,8.09,14]tricosa-1(21),9,11,13,18(22),19-hexaene-15,17,17-trione] | < 1000 nM | +++ (+++ is >60%) | ring closure, isolated yield ([1]; from CC1(C)CC(CCNc2cccc(S(=O)(=O)NC(=O)c3ccc(-n4ccc(OCCC5(C(F)(F)F)CC5)n4)nc3Cl)n2)CN1, 14-membered ring, K2CO3/CsF/3A MS, DMSO, 54.4 mM, 155.0 °C): 43%
CC1(C)CC2CCCCn3ccc(n3)S(=O)(=O)NC(=O)c3ccc(-n4ccc(OCCC5(C(F)(F)F)CC5)n4)nc3N1C2 (stereo not drawn) [Compound 39, 21,21-dimethyl-4-(3-{2-[1-(trifluoromethyl)cyclopropyl]ethoxy}-1H-pyrazol-1-yl)-10λ^6-thia-1,3,9,14,23-pentaazatetracyclo[17.2.1.111,14.02,7]tricosa-2,4,6,11(23),12-pentaene-8,10,10-trione] | 1000 to 3000 nM | +++ (+++ is >60%) | ring closure, isolated yield ([1]; from CC(C)(C)OC(=O)N1CC(CCCCn2ccc(S(=O)(=O)NC(=O)c3ccc(-n4ccc(OCCC5(C(F)(F)F)CC5)n4)nc3Cl)n2)CC1(C)C, 15-membered ring, HCl (Boc off), K2CO3/CsF/3A MS, DMSO, 63.7 mM, 150.0 °C, 2 steps): 37%
CC1(C)CC2CCCCc3ccc(cc3)S(=O)(=O)NC(=O)c3ccc(-n4ccc(OCCC5(C(F)(F)F)CC5)n4)nc3N1C2 (stereo not drawn) [Compound 52, 12,12-dimethyl-8-(3-{2-[1-(trifluoromethyl)cyclopropyl]ethoxy}-1H-pyrazol-1-yl)-2λ^6-thia-3,9,11-triazatetracyclo[17.2.2.111,14.05,10]tetracosa-1(21),5,7,9,19,22-hexaene-2,2,4-trione] | < 1000 nM | ++ (++ is 30-60%) | ring closure, isolated yield ([1]; from CC1(C)CC(CCCCc2ccc(S(=O)(=O)NC(=O)c3ccc(-n4ccc(OCCC5(C(F)(F)F)CC5)n4)nc3Cl)cc2)CN1, 16-membered ring, K2CO3/CsF/3A MS, DMSO, 37.4 mM, 155.0 °C): 26%
CC1(C)CC2CCCCc3cccc(c3)S(=O)(=O)NC(=O)c3ccc(-n4ccc(OCCC5(C(F)(F)F)CC5)n4)nc3N1C2 (stereo not drawn) [Compound 53, 12,12-dimethyl-8-(3-{2-[1-(trifluoromethyl)cyclopropyl]ethoxy}-1H-pyrazol-1-yl)-2λ^6-thia-3,9,11-triazatetracyclo[17.3.1.111,14.05,10]tetracosa-1(22),5,7,9,19(23),20-hexaene-2,2,4-trione] | < 1000 nM | +++ (+++ is >60%) | ring closure, isolated yield ([1]; from CC1(C)CC(CCCCc2cccc(S(=O)(=O)NC(=O)c3ccc(-n4ccc(OCCC5(C(F)(F)F)CC5)n4)nc3Cl)c2)CN1, 15-membered ring, K2CO3/CsF/3A MS, DMSO, 32.0 mM, 165.0 °C, 6.0 h): 51%
CC1(C)C[C@@H]2CCCNc3cccc(n3)S(=O)(=O)NC(=O)c3ccc(-n4ccc(OCCC(C5CC5)C5CC5)n4)nc3N1C2 [Compound 66, (14S)-8-[3-(3,3-dicyclopropylpropoxy)-1H-pyrazol-1-yl]-12,12-dimethyl-2λ^6-thia-3,9,11,18,23-pentaazatetracyclo[17.3.1.111,14.05,10]tetracosa-1(22),5,7,9,19(23),20-hexaene-2,2,4-trione] | < 1000 nM | +++ (+++ is >60%) | ring closure, isolated yield ([1]; from CC1(C)C[C@H](CCCNc2cccc(S(=O)(=O)NC(=O)c3ccc(-n4ccc(OCCC(C5CC5)C5CC5)n4)nc3Cl)n2)CN1, 15-membered ring, K2CO3/CsF, NMP, 75.7 mM, 150.0 °C, 20.0 h): 63%
CC1(C)CC2CCCCOc3ccc(cn3)S(=O)(=O)NC(=O)c3ccc(-n4ccc(OCCC5(C(F)(F)F)CC5)n4)nc3N1C2 (stereo not drawn) [Compound 94, 12,12-dimethyl-8-(3-{2-[1-(trifluoromethyl)cyclopropyl]ethoxy}-1H-pyrazol-1-yl)-19-oxa-2λ^6-thia-3,9,11,21-tetraazatetracyclo[18.2.2.111,14.05,10]pentacosa-1(23),5,7,9,20(24),21-hexaene-2,2,4-trione] | > 3000 nM | + (+ is <30%) | ring closure, isolated yield ([1]; from CC(C)(C)OC(=O)N1CC(CCCCOc2ccc(S(=O)(=O)NC(=O)c3ccc(-n4ccc(OCCC5(C(F)(F)F)CC5)n4)nc3Cl)cn2)CC1(C)C, 17-membered ring, HCl (Boc off), K2CO3/CsF/3A MS, DMSO, 59.4 mM, 150.0 °C, 2 steps): 26%
CC1(C)CC2CCCn3cc(cn3)S(=O)(=O)NC(=O)c3ccc(-n4ccc(OCCC5(C(F)(F)F)CC5)n4)nc3N1C2 (stereo not drawn) [Compound 110, 20,20-Dimethyl-4-(3-{2-[1-(trifluoromethyl)cyclopropyl]ethoxy}-1H-pyrazol-1-yl)-10λ^6-thia-1,3,9,13,14-pentaazatetracyclo[16.2.1.111,14.02,7]docosa-2,4,6,11(22),12-pentaene-8,10,10-trione] | < 1000 nM | ++ (++ is 30-60%) | ring closure, isolated yield ([1]; from CC(C)(C)OC(=O)N1CC(CCCn2cc(S(=O)(=O)NC(=O)c3ccc(-n4ccc(OCCC5(C(F)(F)F)CC5)n4)nc3Cl)cn2)CC1(C)C, 14-membered ring, HCl (Boc off), K2CO3/CsF/3A MS, DMSO, 44.8 mM, 155.0 °C, 2 steps): 36%
CC1(C)CC2CCCCn3cc(cn3)S(=O)(=O)NC(=O)c3ccc(-n4ccc(OCCC5(C(F)(F)F)CC5)n4)nc3N1C2 (stereo not drawn) [Compound 122, 21,21-Dimethyl-4-(3-{2-[1-(trifluoromethyl)cyclopropyl]ethoxy}-1H-pyrazol-1-yl)-10λ^6-thia-1,3,9,13,14-pentaazatetracyclo[17.2.1.111,14.02,7]tricosa-2,4,6,11(23),12-pentaene-8,10,10-trione] | < 1000 nM | ++ (++ is 30-60%) | ring closure, isolated yield ([1]; from CC(C)(C)OC(=O)N1CC(CCCCn2cc(S(=O)(=O)NC(=O)c3ccc(-n4ccc(OCCC5(C(F)(F)F)CC5)n4)nc3Cl)cn2)CC1(C)C, 15-membered ring, K2CO3/CsF/3A MS, DMSO, 41.5 mM, 155.0 °C, 2 steps): 50%
CN1CCCC2CN(c3nc(-n4ccc(OCCC5(C(F)(F)F)CC5)n4)ccc3C(=O)NS(=O)(=O)c3cccc1n3)C(C)(C)C2 (stereo not drawn) [Compound 133, 12,12,18-trimethyl-8-(3-{2-[1-(trifluoromethyl)cyclopropyl]ethoxy}-1H-pyrazol-1-yl)-2λ^6-thia-3,9,11,18,23-pentaazatetracyclo[17.3.1.111,14.05,10]tetracosa-1(23),5(10),6,8,19,21-hexaene-2,2,4-trione] | < 1000 nM | +++ (+++ is >60%) | ring closure, isolated yield ([1]; from CN(CCCC1CNC(C)(C)C1)c1cccc(S(=O)(=O)NC(=O)c2ccc(-n3ccc(OCCC4(C(F)(F)F)CC4)n3)nc2Cl)n1, 15-membered ring, K2CO3/CsF/3A MS, DMSO, 30.3 mM, 165.0 °C, 4.0 h): 42%
CN1CCCC2CN(c3nc(-n4ccc(OCCC5(C(F)(F)F)CC5)n4)ccc3C(=O)NS(=O)(=O)c3ccc1nc3)C(C)(C)C2 (stereo not drawn) [Compound 140, 12,12,18-Trimethyl-8-(3-{2-[1-(trifluoromethyl)cyclopropyl]ethoxy}-1H-pyrazol-1-yl)-2λ^6-thia-3,9,11,18,20-pentaazatetracyclo[17.2.2.111,14.05,10]tetracosa-1(22),5,7,9,19(23),20-hexaene-2,2,4-trione] | < 1000 nM | ++ (++ is 30-60%) | ring closure, isolated yield ([1]; from CN(CCCC1CNC(C)(C)C1)c1ccc(S(=O)(=O)NC(=O)c2ccc(-n3ccc(OCCC4(C(F)(F)F)CC4)n3)nc2Cl)cn1, 16-membered ring, K2CO3/CsF, DMSO, 10.2 mM, 200.0 °C, 1.5 h): 12%
CC1(C)CC2CCCCCc3ccc(cn3)S(=O)(=O)NC(=O)c3ccc(-n4ccc(OCCC5(C(F)(F)F)CC5)n4)nc3N1C2 (stereo not drawn) [Compound 142, 12,12-Dimethyl-8-(3-{2-[1-(trifluoromethyl)cyclopropyl]ethoxy}-1H-pyrazol-1-yl)-2λ^6-thia-3,9,11,21-tetraazatetracyclo[18.2.2.111,14.05,10]pentacosa-1(23),5,7,9,20(24),21-hexaene-2,2,4-trione] | < 1000 nM | + (+ is <30%) | ring closure, isolated yield ([1]; from 2-chloro-N-[[6-[5-(5,5-dimethylpyrrolidin-3-yl)pentyl]-3-pyridyl]sulfonyl]-6-[3-[2-[1-(trifluoromethyl)cyclopropyl]ethoxy]pyrazol-1-yl]pyridine-3-carboxamide (dihydrochloride salt), 17-membered ring, K2CO3/CsF, DMSO, 63.0 mM, 165.0 °C): 36%
